Reference: US4101662A, “Method for inhibiting emesis and compositions therefor” (priority 1973, dated 1978)
Counter-ions that a name gives are not always drawn. Like-named read-outs stand apart in the source and are kept apart here.

Tested on: emetic effect of apomorphine
Test: Antiemetic activity (IM) against apomorphine-induced emesis in unanesthetized dogs, ED50
Format: in vivo
Settings: for ED50: Canis lupus familiaris
Experimental: Description of this invention will therefore be made with especial emphasis on 4-(p-fluorobenzoyl)-1-[3-(p-fluorobenzoyl)propyl]piperidine hydrochloride, it being understood that the principles and practices involved are applicable to the other compounds of the formula first hereinabove set forth. The antiemetic activity of the compounds was determined by the following standard pharmacological tests.
The compounds were administered intramuscularly (IM) to unanesthetized dogs in the caudal muscles (left hind leg) and thirty minutes later they received apomorphine hydrochloride (0.1 mg./kg. s.c.). The compounds were administered in micrograms (mcg.) at several dose levels and the percent reduction in frequency of emesis relative to controls determined. From the data the ED50 in micrograms was determined.

[1] = IM, unanesthetized dogs, 30 minutes before apomorphine hydrochloride 0.1 mg/kg s.c., reduction in frequency of emesis relative to controls, read-out: ED50 and 95% Confidence Limits

O=C(CCCN1CCC(C(=O)c2ccc(F)cc2)CC1)c1ccc(F)cc1 [Example 1, 4-(p-Fluorobenzoyl)-1-[3-(p-fluorobenzoyl)propyl]piperidine Hydrochloride]
ED50 [1]: 0.0083 mg/kg

O=C(CCCN1CCC(C(=O)c2ccc(F)cc2)CC1)c1ccc(Cl)cc1 [Example 2, 4-(p-Fluorobenzoyl)-1-[3-(p-chlorobenzoyl)propyl]piperidine Hydrochloride]
ED50 [1]: 0.06 mg/kg

O=C(CCCN1CCC(C(=O)c2ccc(Cl)cc2)CC1)c1ccc(F)cc1 [Example 3, 4-(p-Chlorobenzoyl)-1-[3-(p-fluorobenzoyl)propyl]piperidine Hydrochloride]
ED50 [1]: 0.077 mg/kg

O=C(CCCN1CCC(C(=O)c2ccc(Cl)cc2)CC1)c1ccc(Cl)cc1 [Example 4, 4-(p-chlorobenzoyl)-1-[3-(p-chlorobenzoyl)propyl]piperidine Hydrochloride]
ED50 and 95% Confidence Limits (Estimated Values) (IM, unanesthetized dogs, 30 minutes before apomorphine hydrochloride 0.1 mg/kg s.c., footnote a: estimated values): ~1401.0 (796-2468) mcg/kg

O=C(CCCN1CCC(C(O)c2ccc(F)cc2)CC1)c1ccc(F)cc1 (stereo not drawn) [Example 9, 4-(p-Fluoro-α-hydroxybenzyl)-1-[3-(p-fluorobenzoyl)propyl]piperidine]
ED50 (im, read-out: ED50 and 95% Confidence Limits): 0.132 mg/kg

OC(CCCN1CCC(C(O)c2ccc(F)cc2)CC1)c1ccc(F)cc1 (stereo not drawn) [Example 10, 4-(p-Fluoro-α-hydroxybenzyl)-1-[3-(p-fluoro-α-hydroxy)propyl]piperidine]
ED50 (IM, unanesthetized dogs, 30 minutes before apomorphine hydrochloride 0.1 mg/kg s.c., footnote b: graphic estimate, vehicle 80% polyethylene glycol 300 and 20% water, read-out: ED50 (value obtained from a graphic estimate)): ~1 mg/kg
